Data as given in PMC9585581, “Developing Photoaffinity Probes for Dopamine Receptor D2 to Determine Targets of Parkinson’s Disease Drugs” (ACS Chemical Neuroscience, 2022).

Molecular target: DRD2 (Homo sapiens, UniProt P14416)
Assay: Western blot analysis of DRD2-probe binding with competition by parent pharmacophore
Parameters: expressed in transfected cells
Conditions: probe 100 nm; for competition with parent pharmacophore (Western blot): competitor (ropinirole or pramipexole) 50 μM; for photo-cross-linking / colocalization with DRD2 band (Western blot): membrane fraction enriched via Strep Tag II
Text: To observe the photo-cross-linking of DRD2 at the protein level, we analyzed the colocalization of DRD2 by clicking a fluorophore on the probe and performing Western blots. We further observed the competition with the parent pharmacophore of each probe and the ability of a negative control benzophenone (16) to cross-link to DRD2. Our DRD2-expressing cells or unmodified 293T cells (control group) were suspended in media, treated with the probe at a 100 nm concentration, and photo-cross-linked. The cells were then lysed, and the membrane fraction was separated and enriched for DRD2 by pulldown of the Strep Tag II fusion using magnetic beads. After “clicking” a fluorescent tag to the probe, the membrane fraction was run on an SDS-PAGE gel, transferred to a nitrocellulose membrane, and treated with antibodies against DRD2 and Strep Tag II. […] We also observed many nonspecific binding bands for the probe, which is consistent with our other studies, as well as the observations of the field when it relates to photo-cross-linking groups. […] With this confirmation, we proceeded to proteomic analysis of probe interactions.
Figure 6 Photo-cross-linking of probes 5 and 7 to DRD2 visualized with Western blot. Lanes 1–5 correspond to samples with probe 5 at 100 nm, lanes 6–10 correspond to samples treated with probe 7 at 100 nm, and lanes 11–14 correspond to samples treated with negative control probe 16. Lanes: 1, 6, and 11 are the anti-DRD2 antibody channel, lanes 2, 3, 7, 8, and 12 are fluorescence of the Alexa Fluor 555 clicked to the probes 5, 7, or 16, lanes 4, 9, and 13 are the anti-Strep Tag antibody channel, and lanes 5, 10, and 14 are the overlaid channels for the respective probes.
A stable HEK293T-derived cell line-expressing DRD2-Strep Tag II fusion was maintained in DMEM supplemented with 10% FBS, 100 U/mL penicillin, and 100 μg/mL streptomycin in a humidified atmosphere at 37 °C in 5% CO2. Cells were plated at a density of 4 × 10^4 cells/cm^2 in T300 tissue culture flasks (CellTreat) and allowed to grow to an 80% confluency. At confluency, media was removed and cells were washed once with cold HBSS, followed by incubation for 15 min in cold HBSS with 0.53 mM EDTA. Following incubation, cells were scraped off of the bottom of the flask and the cell suspension was transferred to a 15 mL conical tube and then pelleted at 500g for 5 min. The supernatant was removed, and the cell pellet was resuspended in HBSS followed by centrifugation at 500g for 5 min. […] The supernatant of the cell pellet was removed, and the cells were resuspended in probe solution and incubated at room temperature for 2 min followed by centrifugation at 500g for 5 min. The cell pellet was resuspended in either HBSS or 50 μM competitor solution in HBSS and irradiated with a 365 nm UV lamp (8 W, 2 cm distance) for 30 min at room temperature. The cells were then pelleted at 500g for 5 min, and the supernatant was removed. Membrane fractionation was performed following the MEM-PER Membrane Protein Extraction Kit (Thermo). The solubilized membrane fraction was incubated with hydrophilic streptavidin magnetic beads (NEB) for 1 h at room temperature. The flow-through was removed, and the beads were washed twice with PBS. […]

Chain of DRD2 (P14416 whole entry): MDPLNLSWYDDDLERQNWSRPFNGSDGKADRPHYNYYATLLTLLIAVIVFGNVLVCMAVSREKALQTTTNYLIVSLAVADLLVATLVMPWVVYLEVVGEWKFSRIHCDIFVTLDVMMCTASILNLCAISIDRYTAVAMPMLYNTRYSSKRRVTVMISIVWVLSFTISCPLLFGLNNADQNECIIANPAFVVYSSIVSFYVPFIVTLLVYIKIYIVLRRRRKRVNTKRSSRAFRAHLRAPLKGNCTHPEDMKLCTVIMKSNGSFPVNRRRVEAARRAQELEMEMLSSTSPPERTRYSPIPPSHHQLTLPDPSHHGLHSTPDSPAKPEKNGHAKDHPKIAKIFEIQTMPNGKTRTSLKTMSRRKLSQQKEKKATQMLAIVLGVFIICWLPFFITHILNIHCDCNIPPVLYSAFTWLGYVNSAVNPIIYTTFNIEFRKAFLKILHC

SMILES	competition with parent pharmacophore (Western blot)	photo-cross-linking / colocalization with DRD2 band (Western blot)
C#CCOc1ccc(C(=O)c2ccc(CNCCc3cccc4c3CC(=O)N4)cc2)cc1 [Compound 5, 4-(2-((4-(4-(Prop-2-yn-1-yloxy)benzoyl)benzyl)amino)ethyl)indolin-2-one]	greatly diminish the binding	binding to the DRD2 receptor
C#CCOc1ccc(C(=O)c2ccc(CN[C@H]3CCc4nc(N)sc4C3)cc2)cc1 [Compound 7, (S)-(4-(((2-Amino-4,5,6,7-tetrahydrobenzo[d]thiazol-6-yl)amino)methyl)phenyl)(4-(prop-2-yn-1-yloxy)phenyl)methanone]	greatly diminish the binding	binding to the DRD2 receptor
